According to ChEMBL document CHEMBL4616723, “Discovery of Antibacterials That Inhibit Bacterial RNA Polymerase Interactions with Sigma Factors” (J Med Chem, 2020):
Converted amounts (≈) assume the structure as drawn.

Assays:
Format in all cases: functional
Acinetobacter baumannii = assay: Antibacterial activity against Acinetobacter baumannii ATCC 19606 after 20 hrs by CLSI based-broth microdilution method; conditions: ATCC 19606 = CIP 70.34 = JCM 6841, 20 h
Streptococcus pneumoniae = assay: Antibacterial activity against Streptococcus pneumoniae ATCC 49619 after 20 hrs by CLSI based-broth microdilution method; conditions: ATCC 49619, 20 h
Enterobacter cloacae = assay: Antibacterial activity against Enterobacter cloacae ATCC 13047 after 20 hrs by CLSI based-broth microdilution method; conditions: subsp. cloacae ATCC 13047, 20 h
Pseudomonas aeruginosa = assay: Antibacterial activity against Pseudomonas aeruginosa ATCC 27853 after 20 hrs by CLSI based-broth microdilution method; conditions: ATCC 27853, 20 h
Escherichia coli = assay: Antibacterial activity against Escherichia coli ATCC 25922 after 20 hrs by CLSI based-broth microdilution method; conditions: ATCC 25922, 20 h
Klebsiella pneumoniae = assay: Antibacterial activity against Klebsiella pneumoniae ATCC 700603 after 20 hrs by CLSI based-broth microdilution method; conditions: ATCC 700603, 20 h

| SMILES | MIC (Acinetobacter baumannii) [mg/L] | MIC (Streptococcus pneumoniae) [mg/L] | MIC (Enterobacter cloacae) [mg/L] | MIC (Pseudomonas aeruginosa) [mg/L] | MIC (Escherichia coli) [mg/L] | MIC (Klebsiella pneumoniae) [mg/L] |
| --- | --- | --- | --- | --- | --- | --- |
| NC(=O)c1ccccc1NCc1ccc(Sc2ccc(Cl)c(Cl)c2)c([N+](=O)[O-])c1 | > 256 | > 256 | > 256 | > 256 | > 256 | > 256 |
| Nc1ccccc1Sc1ccc(CNc2ccc(C(=O)O)cc2)cc1[N+](=O)[O-] | > 256 | 256 (≈ 647 µM) | > 256 | > 256 | > 256 | > 256 |
| O=C(O)c1ccccc1C(=O)c1ccc(Nc2cccc(Cl)c2)c([N+](=O)[O-])c1 | > 256 | 256 (≈ 645 µM) | > 256 | > 256 | > 256 | > 256 |
| O=C(O)c1cccc(NC(=O)c2ccc(Sc3ccc(Cl)c(Cl)c3)c([N+](=O)[O-])c2)c1 | > 256 | 256 (≈ 553 µM) | > 256 | > 256 | > 256 | > 256 |
| Cc1cccc([N+](=O)[O-])c1Sc1ccc(C(=O)c2ccccc2C(=O)O)cc1[N+](=O)[O-] | > 256 | 128 (≈ 292 µM) | > 256 | > 256 | > 256 | > 256 |
| O=C(Nc1cccc(Sc2ccc(C(=O)c3ccccc3C(=O)O)cc2[N+](=O)[O-])c1)c1ccccc1 | > 256 | 32 (≈ 64.2 µM) | > 256 | > 256 | > 256 | > 256 |
| Cc1ccc(C(=O)O)cc1NCc1ccc(Sc2ccc(Cl)c(Cl)c2)c([N+](=O)[O-])c1 | > 256 | 16 (≈ 34.5 µM) | > 256 | > 256 | > 256 | > 256 |
| O=C(Nc1ccccc1C(=O)O)c1ccc(Sc2ccc(Cl)c(Cl)c2)c([N+](=O)[O-])c1 | > 256 | > 256 | > 256 | > 256 | > 256 | > 256 |
| O=C(O)c1ccccc1C(=O)c1ccc(NCc2ccccc2)c([N+](=O)[O-])c1 | > 256 | 256 (≈ 680 µM) | > 256 | > 256 | > 256 | > 256 |
| Nc1ccccc1Sc1ccc(CNc2ccccc2C(=O)O)cc1[N+](=O)[O-] | > 256 | 64 (≈ 162 µM) | > 256 | > 256 | > 256 | > 256 |
| O=C(O)c1ccccc1C(=O)c1ccc(Sc2ccccn2)c([N+](=O)[O-])c1 | > 256 | > 256 | > 256 | > 256 | > 256 | > 256 |
| O=C(O)c1ccccc1C(=O)c1ccc(Sc2ccccc2F)c([N+](=O)[O-])c1 | > 256 | 128 (≈ 322 µM) | > 256 | > 256 | > 256 | > 256 |
| Cc1ccc(Sc2ccc(C(=O)c3ccccc3C(=O)O)cc2[N+](=O)[O-])c(C)c1 | > 256 | 32 (≈ 78.5 µM) | > 256 | > 256 | > 256 | > 256 |
| Nc1ccccc1Sc1ccc(C(=O)Nc2cccc(C(=O)O)c2)cc1[N+](=O)[O-] | > 256 | 128 (≈ 313 µM) | > 256 | > 256 | > 256 | > 256 |
| NS(=O)(=O)c1cccc(NCc2ccc(Sc3ccc(Cl)c(Cl)c3)c([N+](=O)[O-])c2)c1 | > 256 | 64 (≈ 132 µM) | > 256 | > 256 | > 256 | > 256 |
| CCN(CC)C(=O)c1ccc(Sc2ccc(C(=O)c3ccccc3C(=O)O)cc2[N+](=O)[O-])c([N+](=O)[O-])c1 | > 256 | 256 (≈ 489 µM) | > 256 | > 256 | > 256 | > 256 |

| SMILES | MIC (Acinetobacter baumannii) [mg/L] | MIC (Streptococcus pneumoniae) [mg/L] | MIC (Enterobacter cloacae) [mg/L] | MIC (Pseudomonas aeruginosa) [mg/L] | MIC (Escherichia coli) [mg/L] | MIC (Klebsiella pneumoniae) [mg/L] |
| --- | --- | --- | --- | --- | --- | --- |
| NC(=O)c1cccc(Nc2ccc(C(=O)c3ccccc3C(=O)O)cc2[N+](=O)[O-])c1 | > 256 | > 256 | > 256 | > 256 | > 256 | > 256 |
| O=C(O)c1ccccc1C(=O)c1ccc(Nc2nccs2)c([N+](=O)[O-])c1 | > 256 | > 256 | > 256 | > 256 | > 256 | > 256 |
| COc1ccc(Nc2ccc(C(=O)c3ccccc3C(=O)O)cc2[N+](=O)[O-])cc1 | > 256 | > 256 | > 256 | > 256 | > 256 | > 256 |
| NC(=O)c1cccc(NCc2ccc(Sc3ccc(Cl)c(Cl)c3)c([N+](=O)[O-])c2)c1 | > 256 | > 256 | > 256 | > 256 | > 256 | > 256 |
| Cc1cccc(Nc2ccc(C(=O)c3ccccc3C(=O)O)cc2[N+](=O)[O-])c1 | > 256 | 128 (≈ 340 µM) | > 256 | > 256 | > 256 | > 256 |
| O=[N+]([O-])c1cc(CNc2cccc(CO)c2)ccc1Sc1ccc(Cl)c(Cl)c1 | > 256 | > 256 | > 256 | > 256 | > 256 | > 256 |
| O=C(O)c1ccc(N2CCOCC2)c(NCc2ccc(Sc3ccc(Cl)c(Cl)c3)c([N+](=O)[O-])c2)c1 | > 256 | 16 (≈ 29.9 µM) | > 256 | > 256 | > 256 | > 256 |
| O=C(O)c1ccccc1C(=O)c1ccc(Nc2cccc(CO)c2)c([N+](=O)[O-])c1 | > 256 | > 256 | > 256 | > 256 | > 256 | > 256 |
| O=C(O)c1ccccc1C(=O)c1ccc(Nc2ccc(Cl)c(Cl)c2)c([N+](=O)[O-])c1 | > 256 | 64 (≈ 148 µM) | > 256 | > 256 | > 256 | > 256 |
| Nc1ccccc1Sc1ccc(CNc2cccc(C(=O)O)c2)cc1[N+](=O)[O-] | > 256 | 64 (≈ 162 µM) | > 256 | > 256 | > 256 | > 256 |
| COc1ccccc1Sc1ccc(C(=O)c2ccccc2C(=O)O)cc1[N+](=O)[O-] | > 256 | 128 (≈ 313 µM) | > 256 | > 256 | > 256 | > 256 |
| O=C(O)c1ccccc1C(=O)c1ccc(Sc2ccc(Cl)cc2Cl)c([N+](=O)[O-])c1 | > 256 | 32 (≈ 71.4 µM) | > 256 | > 256 | > 256 | > 256 |
| CC(=O)Nc1cccc(Sc2ccc(C(=O)c3ccccc3C(=O)O)cc2[N+](=O)[O-])c1 | > 256 | 256 (≈ 587 µM) | > 256 | > 256 | > 256 | > 256 |
| CC(C)Nc1cccc(Sc2ccc(C(=O)c3ccccc3C(=O)O)cc2[N+](=O)[O-])c1 | > 256 | 32 (≈ 73.3 µM) | > 256 | > 256 | > 256 | > 256 |
| NC1CCCCC1Nc1ccc(C(=O)c2ccccc2C(=O)O)cc1[N+](=O)[O-] (configuration not stated) | > 256 | > 256 | > 256 | > 256 | > 256 | > 256 |
| O=C(O)c1ccccc1C(=O)c1ccc(Nc2ccccc2)c([N+](=O)[O-])c1 | > 256 | 256 (≈ 707 µM) | > 256 | > 256 | > 256 | > 256 |
